{"source": "patent US4205080A", "about": "“2,3-Dihydro benzofuran carboxamides” (Shell Oil Company, priority 1979, dated 1980)", "data": [{"system": "swine adipose tissue", "test": "inhibition of lipogenesis (lipid synthesis from radioactive glucose) in slices of swine adipose tissue", "type": "cell-based", "conditions": "100 micrograms per milliliter test compound; 37° C., 2 hours; glucose-U^14 C; 300 microunits of insulin; 5% DMSO; triplicate", "source_text": "The manner in which they cause this effect is not known with certainty; it is believed that they interfere with the synthesis of fatty acids in the tissues. Their effectiveness for this purpose has been ascertained by immersing samples of swine adipose tissue in a liquid medium containing radioactive glucose and the test chemical for a period of time, then isolating the lipid from the treated tissue and determining the up-take of the radioactive carbon by means of scintillation counting techniques. These tests were conducted in swine adipose tissue because in swine, the primary site of lipogenesis--i.e., fatty acid synthesis--appears to be adipose tissue.\nDescribed in more detail, the tests were conducted according to the following general procedure:\n150 milligrams of slices of swine adipose tissue were incubated at 37° C. for 2 hours with shaking in 3 milliliters of Krebs-Ringer bicarbonate solution containing one-half of the normal calcium ion concentration, 60 micromoles of glucose, 0.5 micro-Curie of glucose-U^14 C, and 300 microunits of insulin, and 5% dimethyl sulfoxide (DMSO). The test compound was added as a solution or suspension in DMSO and was present as a concentration of 100 micrograms per milliliter of incubation mixture.\nThe incubation was terminated by addition of 0.25 milliliter of 1 N sulfuric acid. The resulting mixture was extracted with a total of 25 milliliters of chloroform:methanol (2:1, v/v). The extracts were washed according to Folch et al. (J. Biol. Chem., 226, 497-509, (1957)), air dried, and counted in a liquid scintillation counter with 15 milliliters of counting fluid (two parts toluene containing 0.4% w/v New England Nuclear Omnifluor: 1 part Triton X-100). The tests were conducted in triplicate and were accompanied by control tests in which all ingredients,proportions and conditions were the same except that no test compound was included. From the data obtained were calculated the percent inhibition of lipid synthesis by the test compound. The data obtained are reported as the percent inhibition of lipogenesis compared to the results obtained in the control tests wherein only the test compound was omitted.", "units": {"Percent Inhibition (of lipogenesis compared to control tests)": "%"}, "values": [{"smiles": "C=CCNC(=O)C1Cc2cc(-c3ccccc3)ccc2O1", "note": "(stereo not shown) [Compound 1, 2,3-dihydro-5-phenyl-N-(2-propenyl)-2-benzofurancarboxamide]", "Percent Inhibition (of lipogenesis compared to control tests)": 59}, {"smiles": "C=CCNC(=O)C1Cc2cc(C(C)CC)ccc2O1", "note": "(stereo not shown) [Compound 2]", "Percent Inhibition (of lipogenesis compared to control tests)": 66}, {"smiles": "C=CCNC(=O)C1Cc2cc(C3CCCCC3)ccc2O1", "note": "(stereo not shown) [Compound 3]", "Percent Inhibition (of lipogenesis compared to control tests)": 43}, {"smiles": "C=CCNC(=O)C1Cc2cc(Cc3ccccc3)ccc2O1", "note": "(stereo not shown) [Compound 4]", "Percent Inhibition (of lipogenesis compared to control tests)": 64}, {"smiles": "C=CCNC(=O)C1Cc2c(Oc3ccccc3)cccc2O1", "note": "(stereo not shown) [Compound 5]", "Percent Inhibition (of lipogenesis compared to control tests)": 77}, {"smiles": "C=CCNC(=O)C1Cc2cc(-c3ccc(C(C)O)cc3)ccc2O1", "note": "(stereo not shown) [Compound 6, 2,3-Dihydro-5-(4-(1-hydroxyethyl)phenyl)-N-(2-propenyl)-2-benzofurancarboxamide]", "Percent Inhibition (of lipogenesis compared to control tests)": 40}, {"smiles": "C=CCNC(=O)C1Cc2cc(-c3ccc(NC(C)=O)cc3)ccc2O1", "note": "(stereo not shown) [Compound 7, 5-(4-(Acetylamino)phenyl)-2,3-dihydro-N-(2-propenyl)-2-benzofurancarboxamide]", "Percent Inhibition (of lipogenesis compared to control tests)": 76}]}]}
